Source: article PMC2362861, “Potent interaction of flavopiridol with MRP1” (British Journal of Cancer, 1999)
Like-named read-outs stand apart in the source and are kept apart here.

Experiments:
GLC4 cells = experiment: Steady-state cellular [3H]daunorubicin accumulation in GLC4 cells; format: cell-based, human; conditions: for Accumulation of daunorubicin, mean percentages of control (set at 100%): GLC4, (iso)flavonoid 50 µM (μM), 0.5 M DNR, 75 min; for Effect on accumulation of DNR in GLC4 cells: 50 µM (μM)
GLC4/ADR cells = experiment: Steady-state cellular [3H]daunorubicin accumulation in GLC4/ADR cells; format: cell-based, human; conditions: for Effect on accumulation of DNR in GLC4/ADR cells: 50 µM (μM); for Accumulation of daunorubicin, mean percentages of control (set at 100%): (iso)flavonoid 50 µM (μM), 0.5 M DNR, 75 min
MRP1 ATPase activity = target: T1, MRP1 ATPase activity (Homo sapiens, UniProt P33527); experiment: ATPase activity of GLC4/ADR plasma membranes (colourimetric inorganic phosphate); format: biochemical; conditions: for Induction of ATPase activity of GLC4/ADR membranes in the concentration range tested: glycosylated (iso)flavonoids, Figure 4
T1 construct: plasma membrane vesicles prepared from the MRP1 overexpressing cell line GLC4/ADR; endogenous in cells; host or cells: GLC4/ADR (adriamycin-selected human small-cell lung cancer subline); plasma membrane vesicles
T1 sequence (P33527 whole entry): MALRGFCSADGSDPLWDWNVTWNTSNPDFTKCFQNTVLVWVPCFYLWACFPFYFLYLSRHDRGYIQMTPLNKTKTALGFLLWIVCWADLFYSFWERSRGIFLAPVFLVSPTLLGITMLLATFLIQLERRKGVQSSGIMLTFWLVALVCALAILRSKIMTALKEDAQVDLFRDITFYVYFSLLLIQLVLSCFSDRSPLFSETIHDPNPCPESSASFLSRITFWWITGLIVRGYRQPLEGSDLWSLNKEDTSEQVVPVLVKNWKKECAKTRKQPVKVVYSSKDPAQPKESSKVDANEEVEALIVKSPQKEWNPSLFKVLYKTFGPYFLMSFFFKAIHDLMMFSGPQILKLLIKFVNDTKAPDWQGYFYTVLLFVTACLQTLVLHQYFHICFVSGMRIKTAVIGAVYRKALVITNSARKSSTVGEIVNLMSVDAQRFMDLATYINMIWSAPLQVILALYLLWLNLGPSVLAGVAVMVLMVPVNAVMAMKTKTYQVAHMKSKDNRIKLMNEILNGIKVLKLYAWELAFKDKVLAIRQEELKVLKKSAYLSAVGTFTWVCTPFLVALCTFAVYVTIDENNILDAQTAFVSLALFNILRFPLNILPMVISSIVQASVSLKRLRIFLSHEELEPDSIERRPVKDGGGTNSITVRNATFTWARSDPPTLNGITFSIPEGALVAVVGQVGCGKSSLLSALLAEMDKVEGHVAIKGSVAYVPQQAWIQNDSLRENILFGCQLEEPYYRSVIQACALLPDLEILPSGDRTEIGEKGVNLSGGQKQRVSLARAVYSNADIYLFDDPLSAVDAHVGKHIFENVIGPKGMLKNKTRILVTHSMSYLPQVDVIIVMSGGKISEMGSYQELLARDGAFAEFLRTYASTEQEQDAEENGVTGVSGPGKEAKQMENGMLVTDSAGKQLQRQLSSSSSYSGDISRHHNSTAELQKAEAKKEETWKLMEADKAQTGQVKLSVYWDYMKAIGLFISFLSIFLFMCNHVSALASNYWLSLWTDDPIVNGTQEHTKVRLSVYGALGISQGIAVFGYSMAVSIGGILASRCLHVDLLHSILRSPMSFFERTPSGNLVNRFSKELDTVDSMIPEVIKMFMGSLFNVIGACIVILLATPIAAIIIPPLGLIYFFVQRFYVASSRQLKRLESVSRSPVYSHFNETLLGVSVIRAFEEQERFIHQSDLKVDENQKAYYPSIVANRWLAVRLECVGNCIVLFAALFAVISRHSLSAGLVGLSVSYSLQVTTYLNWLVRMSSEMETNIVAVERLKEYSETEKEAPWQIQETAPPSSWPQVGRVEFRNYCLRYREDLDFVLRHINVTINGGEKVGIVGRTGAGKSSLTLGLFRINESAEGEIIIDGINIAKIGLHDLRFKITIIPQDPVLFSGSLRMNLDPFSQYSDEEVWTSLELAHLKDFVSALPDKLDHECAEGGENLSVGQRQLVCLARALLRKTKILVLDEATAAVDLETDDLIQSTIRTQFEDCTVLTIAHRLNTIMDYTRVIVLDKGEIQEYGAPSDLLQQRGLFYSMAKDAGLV
Excerpt: One form of cellular resistance, directed against a wide spectrum of natural agents, is referred to as multidrug resistance (MDR). […] The ATP-dependent transport of anticancer drugs out of tumour cells that express MDR proteins may at least theoretically lead to impaired treatment outcome of patients. […] 1-Chloro-2,4-dinitrobenzene (CDNB) was from Sigma (St Louis, MO, USA). […] The isoflavonoid genis- tein was from ICN Biomedicals (Zoetermeer, The Netherlands). […] The (iso)flavonoids were dissolved as a stock solution of 40 mM in dimethyl sulphoxide (DMSO; Across Chimica, Belgium) and stored at -20C. Before experiments, 1:1 dilutions were made in ethanol, followed by a dilution in ethanol/water (1: 3; v/v) to the appropriate concentrations. The maximal concentration of DMSO and ethanol, which was also added to the controls, was 0.5% (v/v). Membrane filters OE67 were from Schleicher and Schuell (Dassel, Germany). Doxorubicin hydrochloride was from Laboratoire Roger Bellon (France). […] S1(MRP1) cells were cultured in the presence of G418 until 2-10 days before experiments. […] Cells were harvested by centrifugation (275 g, 5 min) and washed twice in phosphate-buffered saline. Subsequently, the cells were incubated in 100 mM potassium chloride (KCl), 5 mM magnesium chloride (MgCl2 ), 1 mM phenylmethylsulphonyl fluoride and 50 mM HEPES-KOH (pH 7.4) for 1 h at 0C, in order to allow the cells to swell. Then the cells were ultrasonicated at 20% of the maximum power of an MSE sonicator (Soniprep 150) for three bursts of 15 s. The suspension was centrifuged at 1500 g for 10 min. […] After centrifugation at 100 000 g for 60 min the interface was removed and washed in 100 mM KC1-50 mM HEPES-5 mM MgCl2 buffer (pH 7.4). The final membrane preparations were stored at -80C at a protein concentration of ~ 4 mg ml-1 . […] Vesicles were incubated in KCl-HEPES buffer (pH 7.4) at 37C (protein concentration ~ 0.25 mg ml-1 ), in the presence of 10 mM MgCl2 with or without 1 mM ATP and tritium-labelled DNP-SG. The reaction was stopped by adding ice-cold KCl-HEPES buffer. After rapid filtration, the filters were washed twice with KCl-HEPES buffer. The radioactivity on the filters was measured by liquid scintillation counting. […] Plasma membranes were incubated for 1 h in KCl-HEPES buffer (pH 7.4) at 37C, in the presence of 1 mM EGTA, 1 mM sodium azide and 0.1 mM ouabain, with or without 1 mM ATP. […] Plasma membranes from GLC4 cells (black bars) and GLC4 /ADR cells (white bars) were incubated with 10 nM DNP-SG in the absence or presence of the MIB6 antibody (MIB6) (10 g ml-1 ) or an MRP1 control antibody (10 g ml-1 ). […] In short, anti-MRP1 antibodies were tested for their capacity to inhibit DNP-SG transport into GLC4 /ADR inside-out plasma membrane vesicles.

MRP1 = target: T2, MRP1 (Homo sapiens, UniProt P33527); experiment: ATP-dependent uptake of DNP-SG into GLC4/ADR plasma membrane vesicles; format: biochemical; conditions: using 100 nM DNP-SG
T2 construct: using MRP1-transfected cells and several couples of MRP1 overexpressing cell lines and their parental cell lines; endogenous in cells; host or cells: GLC4, GLC4/ADR, HL60, HL60/ADR and SW1573 (endogenous)
T2 sequence (P33527 whole entry): as above
Excerpt: One form of cellular resistance, directed against a wide spectrum of natural agents, is referred to as multidrug resistance (MDR). […] The ATP-dependent transport of anticancer drugs out of tumour cells that express MDR proteins may at least theoretically lead to impaired treatment outcome of patients. […] 1-Chloro-2,4-dinitrobenzene (CDNB) was from Sigma (St Louis, MO, USA). […] The isoflavonoid genis- tein was from ICN Biomedicals (Zoetermeer, The Netherlands). […] The (iso)flavonoids were dissolved as a stock solution of 40 mM in dimethyl sulphoxide (DMSO; Across Chimica, Belgium) and stored at -20C. Before experiments, 1:1 dilutions were made in ethanol, followed by a dilution in ethanol/water (1: 3; v/v) to the appropriate concentrations. The maximal concentration of DMSO and ethanol, which was also added to the controls, was 0.5% (v/v). Membrane filters OE67 were from Schleicher and Schuell (Dassel, Germany). Doxorubicin hydrochloride was from Laboratoire Roger Bellon (France). […] S1(MRP1) cells were cultured in the presence of G418 until 2-10 days before experiments. […] Cells were harvested by centrifugation (275 g, 5 min) and washed twice in phosphate-buffered saline. […] The radioactivity on the filters was measured by liquid scintillation counting. […]

S1(MRP) = experiment: Growth inhibition assay, S1(MRP); format: cell-based, human; conditions: Homo sapiens, 72 h; S1(MRP); 3 days drug exposure; read-out: IC50 value
S1(1.1) = experiment: Growth inhibition assay, S1(1.1); format: cell-based; conditions: Homo sapiens, 72 h, read-out: IC50 value
GLC4 = experiment: Growth inhibition assay, GLC4; format: cell-based, human; conditions: for IC50: Homo sapiens, read-out: IC50 value
SW1573 = experiment: Growth inhibition assay, SW1573; format: cell-based; conditions: Homo sapiens, read-out: IC50 value
GLC4/ADR = experiment: Growth inhibition assay, GLC4/ADR; format: cell-based, human; conditions: for Resistance of MRP1 overexpressing cells: 72-h exposures; for IC50: Homo sapiens, GLC-4/ADR, 72 h, read-out: IC50 value

Compound: O=c1cc(-c2ccc(O)cc2)oc2cc(O)cc(O)c12 [Apigenin, apigenin]
- Accumulation of daunorubicin, mean percentages of control (set at 100%) (GLC4 cells): 91%
- Effect on accumulation of DNR in GLC4/ADR cells (GLC4/ADR cells): increased the accumulation of DNR

Compound: O=c1cc(-c2ccc(O)cc2)oc2cc(O[C@@H]3O[C@H](CO)[C@@H](O)[C@H](O)[C@H]3O)cc(O)c12 [Apigetrin, apigenin-7-glucose]
- Induction of ATPase activity of GLC4/ADR membranes in the concentration range tested (MRP1 ATPase activity): did not induce ATPase activity
- Effect on accumulation of DNR in GLC4 cells (GLC4 cells): small, but significant decrease
- Effect on accumulation of DNR in GLC4/ADR cells (GLC4/ADR cells): did not increase accumulation of DNR
- Accumulation of daunorubicin, mean percentages of control (set at 100%) (GLC4/ADR cells; GLC4/ADR): 57%

Compound: N[C@@H](CCC(=O)N[C@@H](CSc1ccc([N+](=O)[O-])cc1[N+](=O)[O-])C(=O)NCC(=O)O)C(=O)O [DNP-SG, dinitrophenyl-S-glutathione]
- Stimulation of basal ATPase activity of GLC4/ADR membranes above the control (MRP1 ATPase activity; 10 M DNP-SG (μM)): 4.5 nmol mg protein-1 min-1
- ATPase activity stimulation compared to the control (MRP1 ATPase activity; 10 M DNP-SG (μM), without MIB6): 125%
- ATP-dependent uptake of DNP-SG into GLC4/ADR vesicles (MRP1): 490 pmol mg protein-1 min-1

Compound: O=c1c(-c2ccc(O)cc2)coc2cc(O)cc(O)c12 [Genistein, genistein]
- IC50 (S1(MRP)): 9 µM
- IC50 (S1(1.1); S1(1.1), 3 days drug exposure): 9 µM
- IC50 (GLC4; 72 h, GLC4, 3 days drug exposure): 12 µM
- IC50 (SW1573; 72 h, SW1573, 3 days drug exposure): 10 µM
- Resistance of MRP1 overexpressing cells (GLC4/ADR): No resistance
- IC50 (GLC4/ADR; GLC4/ADR, 3 days drug exposure): 13 µM
- ATPase stimulation, % of the control (MRP1 ATPase activity; 50 µM genistein (μM), without MIB6): 108%
- Concentrations at which ATPase activity of GLC4/ADR membranes was significantly induced (MRP1 ATPase activity; GLC4/ADR membranes, lowest effective concentration and higher): ≥ 1 µM
- Accumulation of daunorubicin, mean percentages of control (set at 100%) (GLC4 cells): 107%
- Effect on accumulation of DNR in GLC4/ADR cells (GLC4/ADR cells): increased the accumulation of DNR
- Difference of DNR accumulation from control (P < 0.05) (GLC4/ADR cells; GLC4/ADR, 10 M genistein (μM), Figure 6): gave a significant difference
- Modulation of cellular accumulation of DNR at low micromolar concentrations (GLC4/ADR cells; GLC4/ADR, Figure 6): did not modulate

Compound: O=c1c(-c2ccc(O)cc2)coc2cc(O[C@@H]3O[C@H](CO)[C@@H](O)[C@H](O)[C@H]3O)cc(O)c12 [Genistin, genistein-7-glucose]
- Induction of ATPase activity of GLC4/ADR membranes in the concentration range tested (MRP1 ATPase activity): did not induce ATPase activity
- Accumulation of daunorubicin, mean percentages of control (set at 100%) (GLC4 cells): 101%
- Effect on accumulation of DNR in GLC4/ADR cells (GLC4/ADR cells): did not increase accumulation of DNR
- Accumulation of daunorubicin, mean percentages of control (set at 100%) (GLC4/ADR cells; GLC4/ADR): 96%

Compound: O=c1c(O)c(-c2ccc(O)cc2)oc2cc(O)cc(O)c12 [Kaempferol, kaempferol]
- IC50 (S1(1.1)): 43 µM
- IC50 (GLC4; GLC4, 72 h): 25 µM
- IC50 (SW1573; SW1573, 72 h): 29 µM
- Resistance of MRP1 overexpressing cells (GLC4/ADR): No resistance
- IC50 (GLC4/ADR): 11 µM
- Accumulation of daunorubicin, mean percentages of control (set at 100%) (GLC4 cells): 92%
- Effect on accumulation of DNR in GLC4/ADR cells (GLC4/ADR cells): increased the accumulation of DNR
- Accumulation of daunorubicin, mean percentages of control (set at 100%) (GLC4/ADR cells; GLC4/ADR): 190%

Compound: O=c1c(O[C@@H]2O[C@H](CO)[C@@H](O)[C@H](O)[C@H]2O)c(-c2ccc(O)cc2)oc2cc(O)cc(O)c12 [Kaempferol-3 glucose, kaempferol-3-glucose]
- Effect on accumulation of DNR in GLC4 cells (GLC4 cells): small, but significant decrease
- Effect on accumulation of DNR in GLC4/ADR cells (GLC4/ADR cells): did not increase accumulation of DNR

Compound: CCCN(CCC)S(=O)(=O)c1ccc(C(=O)O)cc1 [probenecid]
- Effect of simultaneous incubation with probenecid on the cytotoxic effect of flavopiridol (GLC4; GLC4, probenecid 0.5 mM, data not shown): did not alter
- Effect of simultaneous incubation with probenecid on the cytotoxic effect of flavopiridol (GLC4/ADR; GLC4/ADR, probenecid 0.5 mM, data not shown): did not alter
